{"source": "PubChem BioAssay AID489016", "about": "(The Scripps Research Institute Molecular Screening Center, 2010)", "test_system": "P. falciparum 3D7 in RBCs, 3H-hypoxanthine incorporation, 48 h", "assay": "antimalarial potency in infected red cells – cell-based, radiolabel, RBCs, powder sample, late stage, M17LAP inhibitor project, dose response (AID 489016)"}
{"smiles": "CCCCOc1ccc(CC(=O)NO)cc1", "values": [{"measurement": "IC50", "result": 1700, "unit": "nM"}]}
